In ChEMBL document CHEMBL1667792, “DNA-dependent protein kinase (DNA-PK) inhibitors: structure-activity relationships for O-alkoxyphenylchromen-4-one probes of the ATP-binding domain” (Bioorg Med Chem Lett, 2011):

How the values were obtained:
[1] = molecular target: Phosphatidylinositol 4,5-bisphosphate 3-kinase catalytic subunit alpha isoform (Homo sapiens, UniProt P42336); assay: Inhibition of PI3Kalpha after 80 mins
[2] = molecular target: DNA-dependent protein kinase catalytic subunit (Homo sapiens, UniProt P78527)
DNA-dependent protein kinase catalytic subunit, sequence (P78527 whole entry): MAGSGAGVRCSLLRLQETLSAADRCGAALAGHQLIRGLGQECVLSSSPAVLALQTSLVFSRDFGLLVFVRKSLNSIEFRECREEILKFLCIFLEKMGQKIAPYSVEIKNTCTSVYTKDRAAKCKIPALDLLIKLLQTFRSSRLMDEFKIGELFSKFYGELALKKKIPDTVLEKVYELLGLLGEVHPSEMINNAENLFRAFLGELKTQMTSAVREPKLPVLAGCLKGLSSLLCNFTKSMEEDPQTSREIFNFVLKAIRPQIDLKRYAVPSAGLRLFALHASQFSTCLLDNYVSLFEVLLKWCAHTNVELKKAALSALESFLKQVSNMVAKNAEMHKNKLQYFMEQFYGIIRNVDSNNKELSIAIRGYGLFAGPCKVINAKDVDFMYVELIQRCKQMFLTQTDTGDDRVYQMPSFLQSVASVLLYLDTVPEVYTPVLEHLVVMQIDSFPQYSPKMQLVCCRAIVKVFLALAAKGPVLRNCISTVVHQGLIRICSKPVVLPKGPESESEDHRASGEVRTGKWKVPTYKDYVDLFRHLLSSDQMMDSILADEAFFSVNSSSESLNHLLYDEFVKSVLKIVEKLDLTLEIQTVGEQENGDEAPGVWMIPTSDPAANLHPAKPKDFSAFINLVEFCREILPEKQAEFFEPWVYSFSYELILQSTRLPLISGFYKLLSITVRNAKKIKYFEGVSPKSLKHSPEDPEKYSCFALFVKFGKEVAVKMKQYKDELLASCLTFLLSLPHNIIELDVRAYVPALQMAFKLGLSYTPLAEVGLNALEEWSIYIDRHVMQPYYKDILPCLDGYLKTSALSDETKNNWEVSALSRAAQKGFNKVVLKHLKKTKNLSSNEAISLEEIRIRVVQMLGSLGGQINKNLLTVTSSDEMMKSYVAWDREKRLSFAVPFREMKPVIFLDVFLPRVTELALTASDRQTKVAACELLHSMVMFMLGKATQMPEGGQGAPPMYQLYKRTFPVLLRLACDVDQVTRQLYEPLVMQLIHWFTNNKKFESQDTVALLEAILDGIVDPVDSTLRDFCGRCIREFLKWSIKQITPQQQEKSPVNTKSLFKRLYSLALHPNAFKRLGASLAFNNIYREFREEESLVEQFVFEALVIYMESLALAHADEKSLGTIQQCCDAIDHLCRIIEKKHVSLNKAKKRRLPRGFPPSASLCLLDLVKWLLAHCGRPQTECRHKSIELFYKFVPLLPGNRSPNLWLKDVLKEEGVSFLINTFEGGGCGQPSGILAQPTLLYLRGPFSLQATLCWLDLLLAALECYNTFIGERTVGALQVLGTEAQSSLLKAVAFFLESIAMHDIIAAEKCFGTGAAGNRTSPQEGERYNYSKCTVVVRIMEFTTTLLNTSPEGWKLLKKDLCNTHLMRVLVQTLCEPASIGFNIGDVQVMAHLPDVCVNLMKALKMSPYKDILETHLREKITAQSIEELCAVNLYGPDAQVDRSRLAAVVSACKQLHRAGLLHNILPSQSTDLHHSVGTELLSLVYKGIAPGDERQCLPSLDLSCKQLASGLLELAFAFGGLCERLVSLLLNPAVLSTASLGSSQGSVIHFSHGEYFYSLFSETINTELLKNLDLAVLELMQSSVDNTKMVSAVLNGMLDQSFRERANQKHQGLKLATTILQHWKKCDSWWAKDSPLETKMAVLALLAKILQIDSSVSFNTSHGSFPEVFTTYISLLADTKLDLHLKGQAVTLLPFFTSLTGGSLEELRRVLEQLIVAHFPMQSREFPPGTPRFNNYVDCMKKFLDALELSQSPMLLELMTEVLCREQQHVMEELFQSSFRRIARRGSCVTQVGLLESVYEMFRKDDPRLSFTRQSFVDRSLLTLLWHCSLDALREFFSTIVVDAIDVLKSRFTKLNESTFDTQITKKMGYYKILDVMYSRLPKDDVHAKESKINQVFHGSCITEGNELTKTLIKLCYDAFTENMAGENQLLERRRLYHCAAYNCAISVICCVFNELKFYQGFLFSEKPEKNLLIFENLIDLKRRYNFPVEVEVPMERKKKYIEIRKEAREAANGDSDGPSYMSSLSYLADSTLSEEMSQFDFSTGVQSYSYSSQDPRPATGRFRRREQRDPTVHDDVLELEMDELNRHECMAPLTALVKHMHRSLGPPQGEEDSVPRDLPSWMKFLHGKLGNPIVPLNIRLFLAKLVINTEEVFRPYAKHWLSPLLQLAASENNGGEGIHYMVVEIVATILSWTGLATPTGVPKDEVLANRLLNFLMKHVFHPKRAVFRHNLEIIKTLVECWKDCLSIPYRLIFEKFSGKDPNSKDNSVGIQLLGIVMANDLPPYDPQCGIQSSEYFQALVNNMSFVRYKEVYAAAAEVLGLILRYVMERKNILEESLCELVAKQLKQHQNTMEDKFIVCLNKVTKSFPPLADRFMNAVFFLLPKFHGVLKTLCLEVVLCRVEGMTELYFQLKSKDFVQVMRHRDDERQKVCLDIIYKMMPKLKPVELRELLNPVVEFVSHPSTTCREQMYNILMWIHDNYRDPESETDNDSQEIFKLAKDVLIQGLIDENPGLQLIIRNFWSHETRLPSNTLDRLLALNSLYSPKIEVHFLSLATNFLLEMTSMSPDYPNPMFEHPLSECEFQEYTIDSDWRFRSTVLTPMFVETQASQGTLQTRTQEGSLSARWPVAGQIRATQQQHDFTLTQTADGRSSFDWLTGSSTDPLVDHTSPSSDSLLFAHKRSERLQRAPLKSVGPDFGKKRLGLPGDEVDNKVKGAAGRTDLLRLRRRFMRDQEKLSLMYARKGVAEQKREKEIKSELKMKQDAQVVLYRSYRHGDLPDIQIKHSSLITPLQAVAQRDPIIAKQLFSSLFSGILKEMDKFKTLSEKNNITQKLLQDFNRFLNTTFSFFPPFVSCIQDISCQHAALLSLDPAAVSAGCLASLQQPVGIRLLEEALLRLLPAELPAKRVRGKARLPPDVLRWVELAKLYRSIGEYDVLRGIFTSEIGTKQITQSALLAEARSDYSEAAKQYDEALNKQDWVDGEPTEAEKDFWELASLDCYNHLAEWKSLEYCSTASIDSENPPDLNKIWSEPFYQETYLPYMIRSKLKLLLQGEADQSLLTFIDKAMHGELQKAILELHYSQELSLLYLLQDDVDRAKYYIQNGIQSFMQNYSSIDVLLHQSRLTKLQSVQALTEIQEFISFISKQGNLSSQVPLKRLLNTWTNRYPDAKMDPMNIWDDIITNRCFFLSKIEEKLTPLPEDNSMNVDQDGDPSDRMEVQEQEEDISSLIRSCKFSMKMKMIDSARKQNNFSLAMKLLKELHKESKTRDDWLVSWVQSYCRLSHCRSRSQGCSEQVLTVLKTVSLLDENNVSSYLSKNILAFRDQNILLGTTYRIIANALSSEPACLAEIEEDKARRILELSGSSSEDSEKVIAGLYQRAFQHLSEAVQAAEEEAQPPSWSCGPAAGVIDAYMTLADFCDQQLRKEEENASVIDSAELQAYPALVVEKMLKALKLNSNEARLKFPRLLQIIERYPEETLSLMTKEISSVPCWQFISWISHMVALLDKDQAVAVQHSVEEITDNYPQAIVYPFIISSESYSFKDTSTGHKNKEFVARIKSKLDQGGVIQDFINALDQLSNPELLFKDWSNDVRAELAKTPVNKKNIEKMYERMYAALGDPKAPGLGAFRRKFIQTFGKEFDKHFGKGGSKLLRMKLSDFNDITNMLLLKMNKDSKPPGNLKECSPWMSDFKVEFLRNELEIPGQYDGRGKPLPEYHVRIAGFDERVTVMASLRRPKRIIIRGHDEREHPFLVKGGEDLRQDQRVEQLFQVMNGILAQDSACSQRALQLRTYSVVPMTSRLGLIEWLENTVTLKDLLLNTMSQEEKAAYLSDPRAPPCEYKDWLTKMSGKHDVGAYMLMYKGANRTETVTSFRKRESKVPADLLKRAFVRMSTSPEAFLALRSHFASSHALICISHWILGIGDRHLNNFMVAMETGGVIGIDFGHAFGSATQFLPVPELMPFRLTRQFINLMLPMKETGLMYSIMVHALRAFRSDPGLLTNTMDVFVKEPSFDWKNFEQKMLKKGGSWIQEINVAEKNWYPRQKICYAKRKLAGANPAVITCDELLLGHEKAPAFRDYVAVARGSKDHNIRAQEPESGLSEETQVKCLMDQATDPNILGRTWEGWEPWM

HeLa [3] = assay: Potentiation of ionising radiation-induced DNA damaging activity in human HeLa cells assessed as dose modification ratio at 0.5 uM treated 1 hr before ionising radiation challenge followed by washout measured after 6 to 8 days by Giemsa staining; format: functional
HeLa [4] = assay: Potentiation of ionising radiation-induced DNA damaging activity in human HeLa cells assessed as dose modification ratio at 0.1 uM treated 1 hr before ionising radiation challenge followed by washout measured after 6 to 8 days by Giemsa staining; format: functional

Phosphatidylinositol 4,5-bisphosphate 3-kinase catalytic subunit alpha isoform, sequence (P42336 whole entry, canonical isoform): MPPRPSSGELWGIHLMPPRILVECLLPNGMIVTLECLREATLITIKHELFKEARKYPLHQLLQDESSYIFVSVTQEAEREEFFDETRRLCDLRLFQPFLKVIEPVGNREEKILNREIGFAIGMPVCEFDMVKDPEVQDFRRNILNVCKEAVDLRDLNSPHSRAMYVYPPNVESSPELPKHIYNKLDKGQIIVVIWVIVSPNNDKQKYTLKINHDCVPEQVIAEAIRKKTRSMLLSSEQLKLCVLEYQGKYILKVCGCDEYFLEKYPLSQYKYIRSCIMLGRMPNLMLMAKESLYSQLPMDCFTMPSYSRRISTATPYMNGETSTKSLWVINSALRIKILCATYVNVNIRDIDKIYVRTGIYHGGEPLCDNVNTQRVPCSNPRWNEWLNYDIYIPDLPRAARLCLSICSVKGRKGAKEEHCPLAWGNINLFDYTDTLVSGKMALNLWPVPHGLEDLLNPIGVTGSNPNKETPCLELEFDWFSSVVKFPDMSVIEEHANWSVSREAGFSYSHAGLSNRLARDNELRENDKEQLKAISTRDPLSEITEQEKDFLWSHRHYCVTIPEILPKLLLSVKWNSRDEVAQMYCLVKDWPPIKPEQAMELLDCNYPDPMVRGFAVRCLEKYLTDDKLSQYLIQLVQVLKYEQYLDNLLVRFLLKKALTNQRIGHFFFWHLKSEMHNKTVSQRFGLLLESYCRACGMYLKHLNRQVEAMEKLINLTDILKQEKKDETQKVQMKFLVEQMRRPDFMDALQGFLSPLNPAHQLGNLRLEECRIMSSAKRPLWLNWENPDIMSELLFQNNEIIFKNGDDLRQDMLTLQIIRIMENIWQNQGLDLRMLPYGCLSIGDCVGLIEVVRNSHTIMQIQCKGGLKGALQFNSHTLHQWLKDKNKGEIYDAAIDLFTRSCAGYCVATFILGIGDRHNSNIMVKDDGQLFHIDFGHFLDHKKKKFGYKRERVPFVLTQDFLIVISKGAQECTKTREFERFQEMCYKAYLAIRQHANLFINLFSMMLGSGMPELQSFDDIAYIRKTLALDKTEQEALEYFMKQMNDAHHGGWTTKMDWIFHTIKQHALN

SMILES	IC50 [1] [nM]	IC50 [2] [nM]	Ratio (HeLa [3])	Ratio (HeLa [4])
O=C(CN1CCOCC1)Nc1ccc(-c2cccc3c(=O)cc(N4CCOCC4)oc23)cc1OCC1CC1	70	8		
CC1(COc2cc(-c3cccc4c(=O)cc(N5CCOCC5)oc34)ccc2NC(=O)CN2CCOCC2)COC1	300	690		
COc1cc(-c2cccc3c(=O)cc(N4CCOCC4)oc23)ccc1NC(=O)CN1CCOCC1	350	290		
O=C(CN1CCOCC1)Nc1ccc(-c2cccc3c(=O)cc(N4CCOCC4)oc23)cc1O	430	80		
CCOc1cc(-c2cccc3c(=O)cc(N4CCOCC4)oc23)ccc1NC(=O)CN1CCOCC1	470	280		
CC(C)Oc1cc(-c2cccc3c(=O)cc(N4CCOCC4)oc23)ccc1NC(=O)CN1CCOCC1	290	330		
CC(C)COc1cc(-c2cccc3c(=O)cc(N4CCOCC4)oc23)ccc1NC(=O)CN1CCOCC1	150	180		
C=CCOc1cc(-c2cccc3c(=O)cc(N4CCOCC4)oc23)ccc1NC(=O)CN1CCOCC1	150	170		
NC(=O)COc1cc(-c2cccc3c(=O)cc(N4CCOCC4)oc23)ccc1NC(=O)CN1CCOCC1	1100	3300		
COCCOc1cc(-c2cccc3c(=O)cc(N4CCOCC4)oc23)ccc1NC(=O)CN1CCOCC1	1500	2600		
O=C(CN1CCOCC1)Nc1ccc(-c2cccc3c(=O)cc(N4CCOCC4)oc23)cc1OCCN1CCCC1	4400	> 10000		
O=C(CN1CCOCC1)Nc1ccc(-c2cccc3c(=O)cc(N4CCOCC4)oc23)cc1OCC1CCC1	290	160		
O=C(CN1CCOCC1)Nc1ccc(-c2cccc3c(=O)cc(N4CCOCC4)oc23)cc1OCCC1CC1	400	500		
CC1(COc2cc(-c3cccc4c(=O)cc(N5CCOCC5)oc34)ccc2NC(=O)CN2CCOCC2)CCC1	270	110		
O=C(CN1CCOCC1)Nc1ccc(-c2cccc3c(=O)cc(N4CCOCC4)oc23)cc1OCCO	1600	1000		
NCCOc1cc(-c2cccc3c(=O)cc(N4CCOCC4)oc23)ccc1NC(=O)CN1CCOCC1	3000	12000		
O=C(CN1CCOCC1)Nc1ccc(-c2cccc3c(=O)cc(N4CCOCC4)oc23)cc1-c1ccccc1		14	8	11
O=c1cc(N2CCOCC2)oc2c(-c3cccc4c3sc3ccccc34)cccc12	130	28		
O=c1cc(N2CCOCC2)oc2c(-c3ccccc3)cccc12 [LY-294002]		1300		
